Molecules are shown by their SMILES. Values after ≈ are worked out from the molar mass of the structure shown. Active and inactive are the calls of the source. No cut-off for these calls is given here.

In general, MIC refers to the least concentration at which growth counts as inhibited.

The test system of the first assay is Staphylococcus aureus. Kind of assay: Antibacterial activity against Staphylococcus aureus MTCC 3160 measured after 24 hrs by NCCL protocol based broth dilution method. It counts as functional. The settings on record: MTCC 3160, 24 h.
For the compound `CC1(C)O[C@H]2O[C@@H]3COB(c4ccccc4F)O[C@@H]3[C@H]2O1`, the MIC turned out to be 125 mg/L (≈ 425 µM).

The compound `CC1(C)O[C@H]2O[C@@H]3COC(c4ccc(/C=N\c5ccc(F)cc5)cc4)O[C@@H]3[C@H]2O1` (stereo partly drawn) displayed a minimum inhibitory concentration (MIC) of 500 mg/L (≈ 1250 µM).

Turning to `CC1(C)O[C@H]2O[C@@H]3COB(c4cccc(/N=C/c5ccc(Br)cc5O)c4)O[C@@H]3[C@H]2O1`, the MIC is 250 mg/L (≈ 527 µM).

For a further assay, the system named is Salmonella typhi. Kind of assay: Antibacterial activity against Salmonella typhi assessed as zone of inhibition at 100 ug/well measured after 24 hrs by agar well diffusion method. It counts as functional, Salmonella enterica subsp. enterica serovar Typhi. The settings on record: Salmonella enterica, read-out: DIZ. For orientation: A growth-free zone around the sample is the usual read-out of agar diffusion tests.
Consider `CC1(C)O[C@H]2O[C@@H]3COB(c4ccccc4F)O[C@@H]3[C@H]2O1`, for which the zone of inhibition at 100 µg/disc stood at 11 mm.

With `CC1(C)O[C@H]2O[C@@H]3COC(c4ccc(/C=N\c5ccc(F)cc5)cc4)O[C@@H]3[C@H]2O1` (stereo partly drawn), the zone of inhibition at 100 µg/disc turned out to be 0 mm.

Consider `CC1(C)O[C@H]2O[C@@H]3COB(c4cccc(/N=C/c5ccc(Br)cc5O)c4)O[C@@H]3[C@H]2O1`, for which the zone of inhibition at 100 µg/disc is 24 mm.

Another assay has as its system Streptococcus mutans. Description: Antibacterial activity against Streptococcus mutans MTCC 497 assessed as zone of inhibition at 100 ug/well measured after 24 hrs by agar well diffusion method. The settings on record: MTCC 497, 24 h, read-out: DIZ. The class given is functional.
Consider `CC1(C)O[C@H]2O[C@@H]3COB(c4ccccc4F)O[C@@H]3[C@H]2O1`, for which the zone of inhibition at 100 µg/disc amounted to 12 mm.

On to `CC1(C)O[C@H]2O[C@@H]3COC(c4ccc(/C=N\c5ccc(F)cc5)cc4)O[C@@H]3[C@H]2O1` (stereo partly drawn), for which the zone of inhibition at 100 µg/disc came out at 6 mm.

Turning to `CC1(C)O[C@H]2O[C@@H]3COB(c4cccc(/N=C/c5ccc(Br)cc5O)c4)O[C@@H]3[C@H]2O1`, the zone of inhibition at 100 µg/disc was 17 mm.

A further assay deals with Salmonella typhi. Kind of assay: Antibacterial activity against Salmonella typhi measured after 24 hrs by NCCL protocol based broth dilution method. It counts as functional, Salmonella enterica subsp. enterica serovar Typhi. To be noted: Salmonella enterica. For orientation: Dilution methods test growth across graded concentrations, often in twofold steps.
`CC1(C)O[C@H]2O[C@@H]3COB(c4ccccc4F)O[C@@H]3[C@H]2O1` had an MIC of 250 mg/L (≈ 850 µM).

`CC1(C)O[C@H]2O[C@@H]3COB(c4cccc(/N=C/c5ccc(Br)cc5O)c4)O[C@@H]3[C@H]2O1`: the minimum inhibitory concentration (MIC) was found to be 31.2 mg/L (≈ 65.9 µM).

The assay is the same for the next values; noted with them: Salmonella enterica subsp. enterica serovar Typhi.
For the compound `CC1(C)O[C@H]2O[C@@H]3COC(c4ccc(/C=N\c5ccc(F)cc5)cc4)O[C@@H]3[C@H]2O1` (stereo partly drawn), the MIC entry is “inactive”.

Another assay relates to Salmonella paratyphi. Kind of assay: Antibacterial activity against Salmonella paratyphi assessed as zone of inhibition at 100 ug/well measured after 24 hrs by agar well diffusion method. It counts as functional, Salmonella enterica subsp. enterica serovar Paratyphi A. To be noted: Salmonella enterica, read-out: DIZ.
On to `CC1(C)O[C@H]2O[C@@H]3COB(c4ccccc4F)O[C@@H]3[C@H]2O1`, for which the zone of inhibition at 100 µg/disc was 9 mm.

Consider `CC1(C)O[C@H]2O[C@@H]3COC(c4ccc(/C=N\c5ccc(F)cc5)cc4)O[C@@H]3[C@H]2O1` (stereo partly drawn), for which the zone of inhibition at 100 µg/disc was 0 mm.

On to `CC1(C)O[C@H]2O[C@@H]3COB(c4cccc(/N=C/c5ccc(Br)cc5O)c4)O[C@@H]3[C@H]2O1`, for which the zone of inhibition at 100 µg/disc came to 14 mm.

In a further assay the test system is Staphylococcus aureus. Kind of assay: Antibacterial activity against Staphylococcus aureus MTCC 3160 assessed as zone of inhibition at 100 ug/well measured after 24 hrs by agar well diffusion method. The class given is functional. The settings on record: MTCC 3160, 24 h, read-out: DIZ.
Turning to `CC1(C)O[C@H]2O[C@@H]3COB(c4ccccc4F)O[C@@H]3[C@H]2O1`, the zone of inhibition at 100 µg/disc was 11 mm.

In the case of `CC1(C)O[C@H]2O[C@@H]3COC(c4ccc(/C=N\c5ccc(F)cc5)cc4)O[C@@H]3[C@H]2O1` (stereo partly drawn), the zone of inhibition at 100 µg/disc is 8 mm.

In the case of `CC1(C)O[C@H]2O[C@@H]3COB(c4cccc(/N=C/c5ccc(Br)cc5O)c4)O[C@@H]3[C@H]2O1`, the zone of inhibition at 100 µg/disc was found to be 13 mm.

A further assay relates to Micrococcus luteus. Description: Antibacterial activity against Micrococcus luteus MTCC 106 measured after 24 hrs by NCCL protocol based broth dilution method. To be noted: MTCC 106, 24 h. It counts as functional.
Compound `CC1(C)O[C@H]2O[C@@H]3COB(c4ccccc4F)O[C@@H]3[C@H]2O1` showed a minimal inhibitory concentration (MIC) of 250 mg/L (≈ 850 µM).

`CC1(C)O[C@H]2O[C@@H]3COC(c4ccc(/C=N\c5ccc(F)cc5)cc4)O[C@@H]3[C@H]2O1` (stereo partly drawn) registered a minimum inhibitory concentration (MIC) of 500 mg/L (≈ 1250 µM).

As to `CC1(C)O[C@H]2O[C@@H]3COB(c4cccc(/N=C/c5ccc(Br)cc5O)c4)O[C@@H]3[C@H]2O1`, 62.5 mg/L (≈ 132 µM) was the least that counted as inhibitory (MIC).

A further assay relates to Aspergillus fumigatus. Kind of assay: Antifungal activity against Aspergillus fumigatus MTCC 343 assessed as zone of inhibition at 100 ug/well measured after 48 hrs by agar well diffusion method. It counts as functional. The settings on record: MTCC 343, 48 h, read-out: DIZ.
In the case of `CC1(C)O[C@H]2O[C@@H]3COB(c4ccccc4F)O[C@@H]3[C@H]2O1`, the zone of inhibition at 100 µg/disc stood at 9 mm.

Consider `CC1(C)O[C@H]2O[C@@H]3COC(c4ccc(/C=N\c5ccc(F)cc5)cc4)O[C@@H]3[C@H]2O1` (stereo partly drawn), for which the zone of inhibition at 100 µg/disc was 0 mm.

Take `CC1(C)O[C@H]2O[C@@H]3COB(c4cccc(/N=C/c5ccc(Br)cc5O)c4)O[C@@H]3[C@H]2O1`: the zone of inhibition at 100 µg/disc was 0 mm.

In a further assay the test system is Klebsiella pneumoniae. Description: Antibacterial activity against Klebsiella pneumoniae MTCC 3384 assessed as zone of inhibition at 100 ug/well measured after 24 hrs by agar well diffusion method. The settings on record: MTCC 3384, 24 h, read-out: DIZ. It counts as functional.
Turning to `CC1(C)O[C@H]2O[C@@H]3COB(c4ccccc4F)O[C@@H]3[C@H]2O1`, the zone of inhibition at 100 µg/disc was determined as 12 mm.

Take `CC1(C)O[C@H]2O[C@@H]3COC(c4ccc(/C=N\c5ccc(F)cc5)cc4)O[C@@H]3[C@H]2O1` (stereo partly drawn): the zone of inhibition at 100 µg/disc came to 0 mm.

Take `CC1(C)O[C@H]2O[C@@H]3COB(c4cccc(/N=C/c5ccc(Br)cc5O)c4)O[C@@H]3[C@H]2O1`: the zone of inhibition at 100 µg/disc stood at 12 mm.

Another assay relates to Candida albicans. Kind of assay: Antifungal activity against Candida albicans MTCC 3017 assessed as zone of inhibition at 100 ug/well measured after 48 hrs by agar well diffusion method. The class given is functional. The settings on record: MTCC 3017, 48 h, read-out: DIZ.
In the case of `CC1(C)O[C@H]2O[C@@H]3COB(c4ccccc4F)O[C@@H]3[C@H]2O1`, the zone of inhibition at 100 µg/disc amounted to 11 mm.

For `CC1(C)O[C@H]2O[C@@H]3COC(c4ccc(/C=N\c5ccc(F)cc5)cc4)O[C@@H]3[C@H]2O1` (stereo partly drawn), the zone of inhibition at 100 µg/disc was determined as 6 mm.

Consider `CC1(C)O[C@H]2O[C@@H]3COB(c4cccc(/N=C/c5ccc(Br)cc5O)c4)O[C@@H]3[C@H]2O1`, for which the zone of inhibition at 100 µg/disc is 17 mm.

The subject of the next assay is Candida albicans. Kind of assay: Antifungal activity against Candida albicans MTCC 3017 measured after 48 hrs by NCCL protocol based broth dilution method. To be noted: MTCC 3017, 48 h. The class given is functional.
The compound `CC1(C)O[C@H]2O[C@@H]3COB(c4ccccc4F)O[C@@H]3[C@H]2O1` showed an MIC of 500 mg/L (≈ 1700 µM).

In turn, `CC1(C)O[C@H]2O[C@@H]3COC(c4ccc(/C=N\c5ccc(F)cc5)cc4)O[C@@H]3[C@H]2O1` (stereo partly drawn) returned a minimal inhibitory concentration (MIC) of 500 mg/L (≈ 1250 µM).

On to `CC1(C)O[C@H]2O[C@@H]3COB(c4cccc(/N=C/c5ccc(Br)cc5O)c4)O[C@@H]3[C@H]2O1`, for which the minimum inhibitory concentration (MIC) was 125 mg/L (≈ 264 µM).

A further assay has as its system Klebsiella pneumoniae. Kind of assay: Antibacterial activity against Klebsiella pneumoniae MTCC 3384 measured after 24 hrs by NCCL protocol based broth dilution method. It counts as functional.
Conditions: not given
With `CC1(C)O[C@H]2O[C@@H]3COC(c4ccc(/C=N\c5ccc(F)cc5)cc4)O[C@@H]3[C@H]2O1` (stereo partly drawn), the MIC result is “inactive”.

The assay is the same for the next values; noted with them: MTCC 3384, 24 h.
As for `CC1(C)O[C@H]2O[C@@H]3COB(c4ccccc4F)O[C@@H]3[C@H]2O1`, the MIC came out at 250 mg/L (≈ 850 µM).

For `CC1(C)O[C@H]2O[C@@H]3COB(c4cccc(/N=C/c5ccc(Br)cc5O)c4)O[C@@H]3[C@H]2O1`, it took 125 mg/L (≈ 264 µM) to inhibit growth (MIC).

A further assay deals with Aspergillus fumigatus. Description: Antifungal activity against Aspergillus fumigatus MTCC 343 measured after 48 hrs by NCCL protocol based broth dilution method. It counts as functional.
Conditions: not given
In the case of `CC1(C)O[C@H]2O[C@@H]3COC(c4ccc(/C=N\c5ccc(F)cc5)cc4)O[C@@H]3[C@H]2O1` (stereo partly drawn), the MIC entry was “inactive”.

Staying with this assay, now noted: MTCC 343, 48 h.
In turn, `CC1(C)O[C@H]2O[C@@H]3COB(c4ccccc4F)O[C@@H]3[C@H]2O1` displayed an MIC of 500 mg/L (≈ 1700 µM).

The compound `CC1(C)O[C@H]2O[C@@H]3COB(c4cccc(/N=C/c5ccc(Br)cc5O)c4)O[C@@H]3[C@H]2O1` displayed a minimum inhibitory concentration (MIC) of 500 mg/L (≈ 1050 µM).

For a further assay, the system named is Micrococcus luteus. Description: Antibacterial activity against Micrococcus luteus MTCC 106 assessed as zone of inhibition at 100 ug/well measured after 24 hrs by agar well diffusion method. The class given is functional. To be noted: MTCC 106, 24 h, read-out: DIZ.
For the compound `CC1(C)O[C@H]2O[C@@H]3COB(c4ccccc4F)O[C@@H]3[C@H]2O1`, the zone of inhibition at 100 µg/disc is 8 mm.

As to `CC1(C)O[C@H]2O[C@@H]3COC(c4ccc(/C=N\c5ccc(F)cc5)cc4)O[C@@H]3[C@H]2O1` (stereo partly drawn), the zone of inhibition at 100 µg/disc stood at 0 mm.

With `CC1(C)O[C@H]2O[C@@H]3COB(c4cccc(/N=C/c5ccc(Br)cc5O)c4)O[C@@H]3[C@H]2O1`, the zone of inhibition at 100 µg/disc was 21 mm.

Another assay deals with Salmonella paratyphi. Kind of assay: Antibacterial activity against Salmonella paratyphi measured after 24 hrs by NCCL protocol based broth dilution method. The class given is functional, Salmonella enterica subsp. enterica serovar Paratyphi A. The settings on record: Salmonella enterica.
`CC1(C)O[C@H]2O[C@@H]3COB(c4ccccc4F)O[C@@H]3[C@H]2O1`: 125 mg/L (≈ 425 µM) was the least that counted as inhibitory (MIC).

Turning to `CC1(C)O[C@H]2O[C@@H]3COB(c4cccc(/N=C/c5ccc(Br)cc5O)c4)O[C@@H]3[C@H]2O1`, the minimum inhibitory concentration (MIC) was 250 mg/L (≈ 527 µM).

Still in this assay, the particulars now being: Salmonella enterica subsp. enterica serovar Paratyphi A.
Turning to `CC1(C)O[C@H]2O[C@@H]3COC(c4ccc(/C=N\c5ccc(F)cc5)cc4)O[C@@H]3[C@H]2O1` (stereo partly drawn), the MIC result was “inactive”.

The test system of another assay is Streptococcus mutans. Description: Antibacterial activity against Streptococcus mutans MTCC 497 measured after 24 hrs by NCCL protocol based broth dilution method. It counts as functional. To be noted: MTCC 497, 24 h.
In turn, `CC1(C)O[C@H]2O[C@@H]3COB(c4ccccc4F)O[C@@H]3[C@H]2O1` yielded an MIC of 125 mg/L (≈ 425 µM).

Consider `CC1(C)O[C@H]2O[C@@H]3COC(c4ccc(/C=N\c5ccc(F)cc5)cc4)O[C@@H]3[C@H]2O1` (stereo partly drawn), for which the minimum inhibitory concentration (MIC) was found to be 250 mg/L (≈ 626 µM).

`CC1(C)O[C@H]2O[C@@H]3COB(c4cccc(/N=C/c5ccc(Br)cc5O)c4)O[C@@H]3[C@H]2O1` gave an MIC of 125 mg/L (≈ 264 µM).
